Read-outs that look alike come from different tables or passages of the source.
What was measured:
Staphylococcus aureus [1] = experiment: Aerobic agar-dilution AST of facultative anaerobes (MIC, checkerboard FIC); type: cell-based; settings: Staphylococcus aureus, read-out: MIC
Staphylococcus aureus [2] = experiment: Post-antibiotic effect (PAE) in vitro, viable counts; settings: Staphylococcus aureus ATCC 33591 (beta-lactam resistant)
Klebsiella pneumoniae = experiment: Aerobic agar-dilution AST of facultative anaerobes (MIC, checkerboard FIC); type: cell-based
Cutibacterium acnes = experiment: Anaerobic agar-dilution AST (MIC, checkerboard FIC); type: cell-based
Pseudomonas aeruginosa = experiment: Aerobic agar-dilution AST of facultative anaerobes (MIC, checkerboard FIC); type: cell-based
Pediococcus pentosaceus = experiment: AST (MIC) of beneficial or mutualistic facultative anaerobic bacteria; type: cell-based
[3] = system: facultative anaerobic pathogens; experiment: microbe, parasite or virus in culture; type: cell-based
Lactobacillus plantarum = experiment: AST (MIC) of beneficial or mutualistic facultative anaerobic bacteria; type: cell-based; settings: Lactiplantibacillus plantarum
Lactobacillus gasseri = experiment: as above; type: cell-based
Porphyromonas gingivalis = experiment: Anaerobic agar-dilution AST (MIC, checkerboard FIC); type: cell-based; settings: ATCC33277
Escherichia coli = experiment: Aerobic agar-dilution AST of facultative anaerobes (MIC, checkerboard FIC); type: cell-based
[4] = system: Peptostreptococcus anaerobius; experiment: Anaerobic agar-dilution AST (MIC, checkerboard FIC); type: cell-based; settings: Peptostreptococcus anaerobious 807256
Enterococcus faecalis = experiment: Aerobic agar-dilution AST of facultative anaerobes (MIC, checkerboard FIC); type: cell-based
Lactobacillus paracasei = experiment: AST (MIC) of beneficial or mutualistic facultative anaerobic bacteria; type: cell-based; settings: Lacticaseibacillus paracasei
Streptococcus mutans = experiment: Anaerobic agar-dilution AST (MIC, checkerboard FIC); type: cell-based; settings: strain UA 159, anaerobic

C[C@@H]1O[C@@H]1P(=O)(O)O [F, fosfomycin sodium]
MIC (Staphylococcus aureus [1]; ATCC33591, Staphylococcus aureus ATCC 33591 (Table 15)): 4 µg/mL | MIC (Staphylococcus aureus [1]; Staphylococcus aureus 829025): 8 µg/mL | MIC (Staphylococcus aureus [1]; Staphylococcus aureus 894946): 8 µg/mL | MIC (Staphylococcus aureus [1]; Staphylococcus aureus 920576): 8 µg/mL | MIC (Staphylococcus aureus [1]; Staphylococcus aureus 920962): 8 µg/mL | MIC (Staphylococcus aureus [1]; Staphylococcus aureus 927596): 8 µg/mL | MIC (Staphylococcus aureus [1]; Staphylococcus aureus 952566 (Table 15)): > 16 µg/mL | MIC (Staphylococcus aureus [1]; Staphylococcus aureus 952566 (Tables 14A/14B)): 8 µg/mL | MIC (Staphylococcus aureus [1]; Staphylococcus aureus 953041 (Table 15)): 4 µg/mL | MIC (Staphylococcus aureus [1]; Staphylococcus aureus 956270): 8 µg/mL | MIC (Staphylococcus aureus [1]; Staphylococcus aureus 956362): 8 µg/mL | MIC (Staphylococcus aureus [1]; Staphylococcus aureus 981550 (Table 15)): 16 µg/mL | MIC (Staphylococcus aureus [1]; Staphylococcus aureus 981550 (Tables 14A/14B)): 8 µg/mL | MIC (Staphylococcus aureus [1]; Staphylococcus aureus 994946): 2 µg/mL | MIC (Staphylococcus aureus [1]; Staphylococcus aureus 1022425): 16 µg/mL | MIC (Staphylococcus aureus [1]; Staphylococcus aureus 1045190): 8 µg/mL | MIC (Staphylococcus aureus [1]; strain (MR) 829025, aerobic): 4 µg/mL | MIC (Staphylococcus aureus [1]; strain (MR) 884649, aerobic): 8 µg/mL | MIC (Staphylococcus aureus [1]; strain (MR) 903887, aerobic): 8 µg/mL | MIC (Staphylococcus aureus [1]; strain (MR) 918019, aerobic): 4 µg/mL | MIC (Staphylococcus aureus [1]; strain (MR) 920516, aerobic): 4 µg/mL | MIC (Staphylococcus aureus [1]; strain (MR) 927596, aerobic): 8 µg/mL | MIC (Staphylococcus aureus [1]; strain (MR) 956270, aerobic): 4 µg/mL | MIC (Staphylococcus aureus [1]; strain (MR) 956362, aerobic): 8 µg/mL | MIC (Staphylococcus aureus [1]; strain (MR) 967287, aerobic): 8 µg/mL | MIC (Staphylococcus aureus [1]; strain (MR) 974980, aerobic): 8 µg/mL | MIC (Staphylococcus aureus [1]; strain (MR) 979234, aerobic): 8 µg/mL | MIC (Staphylococcus aureus [1]; strain (MR) 981550, aerobic): 4 µg/mL | MIC (Staphylococcus aureus [1]; strain (MR) 1022425, aerobic): 8 µg/mL | MIC (Staphylococcus aureus [1]; strain (MR) 1045190, aerobic): 4 µg/mL | PAE (Staphylococcus aureus [2]; exposure μg/ml: F 16, D/S 1/19, V 4, F/D/S 4/0.25/4.75, F/D/S/V 2/0.125/2.38/0.5): 0.5 h | PAE (Staphylococcus aureus [2]; exposure μg/ml: F 32, D/S 2/38, V 8, F/D/S 8/0.5/9,5, F/D/S/V 4/0.25/4.75/1): 0.5 h | PAE (Staphylococcus aureus [2]; exposure μg/ml: F 64, D/S 4/64, V 16, F/D/S 16/1/19, F/D/S/V 8/0.5/9.5/2): 0.5 h | MIC (Klebsiella pneumoniae; Klebsiella pneumoniae 870964): 64 µg/mL | MIC (Klebsiella pneumoniae; Klebsiella pneumoniae 875638): 64 µg/mL | MIC (Klebsiella pneumoniae; pH 5, Klebsiella pneumoniae 848788, pH 5): 64000 µg/mL | MIC (Klebsiella pneumoniae; strain 848788, aerobic): 32 µg/mL | MIC (Klebsiella pneumoniae; strain 857147, aerobic): 32 µg/mL | MIC (Klebsiella pneumoniae; strain 868968, aerobic): 8 µg/mL | MIC (Klebsiella pneumoniae; strain 869028, aerobic): 8 µg/mL | MIC (Klebsiella pneumoniae; strain 870964, aerobic): 8 µg/mL | MIC (Klebsiella pneumoniae; strain 875638, aerobic): 16 µg/mL | MIC (Klebsiella pneumoniae; strain 892483, aerobic): 4 µg/mL | MIC (Klebsiella pneumoniae; strain 926439, aerobic): 4 µg/mL | MIC (Klebsiella pneumoniae; strain 926456, aerobic): 64 µg/mL | MIC (Klebsiella pneumoniae; strain 939665, aerobic): 64 µg/mL | MIC (Klebsiella pneumoniae; strain 957464, aerobic): 16 µg/mL | MIC (Klebsiella pneumoniae; strain 957467, aerobic): 16 µg/mL | MIC (Klebsiella pneumoniae; strain 984643, aerobic): 16 µg/mL | MIC (Klebsiella pneumoniae; strain 993434, aerobic): 16 µg/mL | MIC (Klebsiella pneumoniae; strain 995460, aerobic): 16 µg/mL | MIC (Klebsiella pneumoniae; strain 1040205, aerobic): 16 µg/mL | MIC (Cutibacterium acnes; Cutibacterium acnes): 128 µg/mL | MIC vs clinical breakpoint (susceptibility) (Cutibacterium acnes; Cutibacterium acnes 6609, anaerobic (Table 17)): + | MIC (Cutibacterium acnes; Cutibacterium acnes, Cutibacterium acnes 6609, anaerobic, read-out: MIC): 64 µg/mL | MIC (Cutibacterium acnes; Cutibacterium acnes, strain 6609, anaerobic, read-out: MIC): 32 µg/mL | MIC (Cutibacterium acnes; strain 6609, anaerobic): 64 µg/mL | MIC (Pseudomonas aeruginosa; Pseudomonas aeruginosa): 128 µg/mL | MIC (Pseudomonas aeruginosa; Pseudomonas aeruginosa 945748): 128 µg/mL | MIC (Pseudomonas aeruginosa; Pseudomonas aeruginosa, pH 5, Pseudomonas aeruginosa 27853, pH 5, read-out: MIC): 32000 µg/mL | MIC (Pseudomonas aeruginosa; Pseudomonas aeruginosa, pH 5, Pseudomonas aeruginosa 975744, pH 5, read-out: MIC): 32000 µg/mL | MIC (Pseudomonas aeruginosa; Pseudomonas aeruginosa, pH 8, Pseudomonas aeruginosa 27853, pH 8, read-out: MIC): 64000 µg/mL | MIC (Pseudomonas aeruginosa; Pseudomonas aeruginosa, strain 880238, aerobic, read-out: MIC): 8 µg/mL | MIC (Pseudomonas aeruginosa; Pseudomonas aeruginosa, strain 889058, aerobic, read-out: MIC): 64 µg/mL | MIC (Pseudomonas aeruginosa; Pseudomonas aeruginosa, strain 906939, aerobic, read-out: MIC): 64 µg/mL | MIC (Pediococcus pentosaceus): > 128 µg/mL | MIC ([3]; Bacillus cereus, ATCC14579, pH 7, read-out: MIC): 64000 µg/mL | MIC ([3]; Bacillus cereus, ATCC14579, pH 8, read-out: MIC): 32000 µg/mL | MIC ([3]; Bacillus cereus, pH 5, read-out: MIC): 4000 µg/mL | MIC ([3]; Bacillus subtilis, pH 5, read-out: MIC): 64000 µg/mL | MIC ([3]; Yersinia pseudotuberculosis, ATCC6905, pH 7): 64000 µg/mL | MIC ([3]; Yersinia pseudotuberculosis, pH 5): 2000 µg/mL | MIC (Lactobacillus plantarum): > 128 µg/mL | MIC (Lactobacillus gasseri): > 128 µg/mL | MIC (Porphyromonas gingivalis): > 128 µg/mL | MIC (Escherichia coli; ATCC25922, Escherichia coli ATCC 25922 (Table 15)): 1 µg/mL | MIC (Escherichia coli; ATCC25922, strain ATCC 25922, aerobic): 2 µg/mL | MIC (Escherichia coli; Escherichia coli 846446): 1 µg/mL | MIC (Escherichia coli; Escherichia coli 854535): 4 µg/mL | MIC (Escherichia coli; Escherichia coli 976657): 16 µg/mL | MIC (Escherichia coli; pH 5, Escherichia coli 857021, pH 5): 2000 µg/mL | MIC (Escherichia coli; pH 7, Escherichia coli 857021, pH 7): 32000 µg/mL | MIC (Escherichia coli; pH 7, Escherichia coli CDC-0089, pH 7): 2000 µg/mL | MIC (Escherichia coli; pH 8, Escherichia coli 25922, pH 8): 8000 µg/mL | MIC (Escherichia coli; pH 8, Escherichia coli 857021, pH 8): 4000 µg/mL | MIC (Escherichia coli; pH 8, Escherichia coli CDC-0089, pH 8): 64000 µg/mL | MIC (Escherichia coli; strain 846446, aerobic): 2 µg/mL | MIC (Escherichia coli; strain 846450, aerobic): 4 µg/mL | MIC (Escherichia coli; strain 854566, aerobic): 16 µg/mL | MIC (Escherichia coli; strain 857021, aerobic): 2 µg/mL | MIC (Escherichia coli; strain 863678, aerobic): 2 µg/mL | MIC (Escherichia coli; strain 863696, aerobic): 8 µg/mL | MIC (Escherichia coli; strain 928017, aerobic): 2 µg/mL | MIC (Escherichia coli; strain 959117, aerobic): 2 µg/mL | MIC (Escherichia coli; strain 961128, aerobic): 2 µg/mL | MIC (Escherichia coli; strain 975811, aerobic): 4 µg/mL | MIC (Escherichia coli; strain 976657, aerobic): 4 µg/mL | MIC (Escherichia coli; strain 977941, aerobic): 4 µg/mL | MIC (Escherichia coli; strain 996332, aerobic): 4 µg/mL | MIC vs clinical breakpoint (susceptibility) ([4]; anaerobic (Table 17)): + | MIC ([4]; Peptostreptococcus anaerobius, anaerobic): 16 µg/mL | MIC (Enterococcus faecalis; Enterococcus faecalis): > 128 µg/mL | MIC (Enterococcus faecalis; Enterococcus faecalis 108, pH 5, read-out: MIC): 8000 µg/mL | MIC (Enterococcus faecalis; Enterococcus faecalis 1086432, pH 7, read-out: MIC): 64000 µg/mL | MIC (Enterococcus faecalis; Enterococcus faecalis, ATCC51559): > 128 µg/mL | MIC (Lactobacillus paracasei): > 128 µg/mL | MIC (Streptococcus mutans): 16 µg/mL
